Assay results taken from patent US12083125B2, “Drug-induced epigenetic remodeling to prevent fibrosis” (Thomas Jefferson University, priority 2016, dated 2024).
“Also recorded” adds a separate entry of the source. Like-named read-outs stand apart in the source and are kept apart here. Values belong to the compound of their own block, whether it stands above or below them.

Tests used:
[1] = test system: cells from the ex vivo mock cataract surgery explants; assay: ex vivo mock cataract surgery explants: myofibroblast emergence, αSMA and Fn-EDA expression; type: cell-based, chick
Description: For example, in a PCO model, using an ex vivo lens mock cataract surgery model in chick embryos that recapitulates features of PCO, we investigated the cell reprogramming events involved in regulating changes in epigenetic markings of chromatin, which result in alterations of chromatin structure and impact gene transcriptional programs to control the emergence of myofibroblasts.
We tested this epigenetic targeting strategy using a clinically relevant ex vivo chick mock cataract surgery model that recapitulates the major features of the lens fibrotic disease, PCO, as well as a human lens cells (SRA01/04). Human SRA01/04 lens cells are studied extensively for the acquisition of a mesenchymal phenotype resulting from an Epithelial Mesenchymal Transition (EMT) after exposure to TGFβ associated with the development of lens fibrosis.
(§1) FIG. 2A illustrates how the ex vivo mock cataract surgery explants are created. Ex vivo mock cataract surgery explants provide a powerful model in which to study wound healing as well as the development of fibrotic disease. Briefly, to create this model, the fiber cell mass is hydroeluted from the lens leaving behind lens epithelial cells that remain adherent to the lens capsule. The resultant ex vivo explant when placed in culture is star shaped, with the adherent cells located in the points of the star. In response to the injury induced by the surgery, mesenchymal cells involved in repair move to the wound edges.
As shown in FIG. 2B wound healing across the denuded basement membrane is typically completed by day 3. Lens epithelial cells led by a leader cell population, which expresses the surface receptor CD44+ [42], move collectively to repopulate the denuded area of the wounded lens capsule (where the differentiated lens fiber cells were removed). FIG. 2C depicts the wound area over a three-day period. In FIGS. 3A and B CD44+ leader cell population that has migrated to the outside wound edge of the explants (FIG. 3A, left panel, right arrow) directs the collective migration of lens epithelial cells onto the rigid tissue culture substrate, a region we refer to as the extracapsular zone (ECZ). […] Therefore, within one model system we can assess epigenetic targeting strategies for preventing fibrosis and determine how these approaches will affect normal wound healing. This ex vivo model was used to investigate the epigenetic mechanisms (detailed below) involved in regulating cell reprogramming to a myofibroblast phenotype associated with lens fibrotic disease.
Next, we tested if manipulating histone de-methylase activity could change chromatin structure to block pro-fibrotic transcription factors from binding to DNA and the acquisition to a myofibroblast phenotype associated with fibrosis. […] Thus, treatment with GSKJ4 prevents αSMA expression in the ex vivo mock cataract surgery model.
Cells from the ex vivo mock cataract surgery explants were treated with vehicle or GSKJ4 for 24 hr. ECZ regions were treated 1 day after injury and inhibitor was washed away after 24 hour of treatment. We chose to add the inhibitor on day 1, during the time of open chromatin, the perfect timing to prevent cell reprogramming to a fibrotic phenotype. […]
(§2) Cells from the ex vivo mock cataract surgery explant were treated for 24 hour as indicated above with vehicle or GSK-J4. […] In FIG. 13B we determined the effect of GSKJ4 short-term treatment on wound healing. […]

[2] = test system: FHL124 human lens cells; assay: TGFβ-stimulated human lens cells, western blot for FN-EDA and Collagen I; type: cell-based; conditions: FHL124 cells stimulated with TGFβ, FIG. 11
Protocol: We also performed similar studies with human lens cell culture. FHL124 human lens cells, a non-transformed spontaneously generated human lens cell line from embryonic explants, were stimulated with Transforming Growth Factor β (TGFβ), a potent inducer of the fibrotic response, in the absence or presence of the UTX inhibitor GSKJ4. Western blotting was performed with antibodies to extracellular matrix molecules associated with fibrosis, including Fibronectin EDA (FN-EDA), a splice form of FN and Collagen I. FN EDA expression is tightly linked to myofibroblast differentiation and Collagen I is a defining feature of fibrosis/scarring. GAPDH was used as a loading control for WB analysis.

[3] = test system: ex vivo mock cataract surgery explants; assay: wound healing (open wound area) in ex vivo mock cataract surgery explants; type: cell-based, chick
Description: as §1
As shown in FIG. 2B wound healing across the denuded basement membrane is typically completed by day 3. […]
We also determined whether GSKJ4 treatment affected wound healing. […] Open wound area (μm^2) was measured on Day 0 (D0) through Day 3 (D3) in the presence of vehicle control (DMSO) or GSKJ4. Open wound area was measured for each ex vivo capsule D0-D3 and presented in the graph+/− SEM. […]
as §2

[4] = evaluation of GSKJ1, GSKJ2, GSKJ4, GSKJ5: cellular permeability / bioavailability; type: in vitro ADME
Description: (§3) To further review compounds in this class, we evaluated […]4, and GSKJ5. Based on our data, and review of the molecule, the highly polar carboxylate group of GSKJ1 and GSKJ2 restricts cellular permeability. […] Accordingly, for purposes of treating disease and disorders here, the most preferred active pharmaceutical compound is GSK-J4.

[5] = evaluation of GSKJ1, GSKJ2, GSKJ4, GSKJ5: efficacy / in vitro studies; conditions: for efficacy / activity: ethyl esters of GSKJ1 and GSKJ2; for potency in in vitro studies: over a control, data not shown
Description: as §3

[6] = testing of GSK-J4 concentration range (efficacy and toxicity)
Protocol: For example, when administering GSK-J4 to a patient, an appropriate therapeutic range comprises: about 1 μM to 10 μM concentration for a liquid, topical vehicle. Suitable doses can be generated based upon the tissue to be treated and area to be treated. […] The LD50 is otherwise known to those of skill in the art based upon the molecule of interest. The GSK-J4 can be formulated with suitable excipients and into a suitable vehicle for delivery to a human patient.

Structure (SMILES): CCOC(=O)CCNc1cc(N2CCc3ccccc3CC2)nc(-c2ccccn2)n1 [GSK-J4]
myofibroblast emergence, short-term treatment ([1]; 24 hour treatment, FIGS. 14A and B): effective to block
αSMA expression ([1]; cells from ex vivo mock cataract surgery explants, FIG. 10A, B): prevents
emergence of myofibroblasts ([1]; ex vivo mock cataract surgery model, FIG. 10A): effectively suppressed
Fn-EDA expression, short-term treatment ([1]; treated 24 hr from day 1 after injury, washed away, lysates day 3, western blot): significantly inhibited
αSMA expression, short-term treatment ([1]; treated 24 hr from day 1 after injury, washed away, lysates day 3, western blot (αSMA to GAPDH)): significantly inhibited; also recorded: effectively blocked
TGFβ induced expression of Collagen I [2]: blocked
TGFβ induced expression of FN EDA [2]: blocked
wound healing (open wound area) ([3]; Day 0 through Day 3 in presence of GSKJ4 vs DMSO, FIG. 12): somewhat slowed but did not prevent
wound healing (open wound area), short-term treatment ([3]; treated at time of injury, day 0, for 24 hour, followed day 0 through day 4): does not affect
bioavailability ([4]; ethyl ester masking the acid group): increased
efficacy / activity [5]: greater efficacy
efficacy by concentration ([6]; 10 μM versus 1 μM): higher efficacy at 10 μM than the 1 μM
toxicity ([6]; 100 μM): began to show signs of toxicity

cellular permeability [4]: restricts
Structure (SMILES): O=C(O)CCNc1cc(N2CCc3ccccc3CC2)nc(-c2ccccn2)n1 [GSKJ1]
potency in in vitro studies [5]: potent over a control

cellular permeability ([4]; highly polar carboxylate group): restricts
Structure (SMILES): O=C(O)CCNc1cc(N2CCc3ccccc3CC2)nc(-c2cccnc2)n1 [GSKJ2]
potency in in vitro studies [5]: potent over a control

Structure (SMILES): CCOC(=O)CCNc1cc(N2CCc3ccccc3CC2)nc(-c2cccnc2)n1 [GSKJ5]
efficacy / activity [5]: inactive
